Assay results taken from the NIST ThermoML archive (doi:10.1021/je800579j).

Test: xn = mol fraction of the nth substance listed
Details: Liquid, Pycnometric method

Cc1ccc(C)cc1 [1,4-dimethylbenzene] + C1COCCO1
mass density [kg/m3]
Details	288.15 K	293.15 K	298.15 K	303.15 K	308.15 K	313.15 K	318.15 K
x2 = 0	865.52	861.17	856.82	852.47	848.12	843.77	839.42
x2 = 0.0716	874.09	869.64	865.2	860.76	856.32	851.88	847.44
x2 = 0.1445	883.22	878.69	874.16	869.64	865.12	860.6	856.08
x2 = 0.2132	892.23	887.63	883.03	878.43	873.83	869.23	864.63
x2 = 0.2871	902.41	897.73	893.05	888.37	883.69	879.02	874.35
x2 = 0.3582	912.76	908	903.24	898.49	893.74	888.99	884.24
x2 = 0.4358	924.73	919.88	915.03	910.19	905.35	900.51	895.67
x2 = 0.5042	935.9	930.97	926.04	921.12	916.2	911.28	906.36
x2 = 0.5846	949.87	944.84	939.81	934.78	929.76	924.74	919.72
x2 = 0.6543	962.76	957.63	952.5	947.38	942.26	937.14	932.02
x2 = 0.7249	976.61	971.38	966.15	960.92	955.69	950.46	945.23
x2 = 0.7923	990.62	985.27	979.92	974.58	969.25	963.92	958.59
x2 = 0.8623	1006.05	1000.6	995.15	989.7	984.25	978.8	973.35
x2 = 0.9311	1022.14	1016.58	1011.03	1005.48	999.93	994.38	988.83

Cc1ccccc1C [1,2-dimethylbenzene] + C1COCCO1
mass density [kg/m3]
Details	288.15 K	293.15 K	298.15 K	303.15 K	308.15 K	313.15 K	318.15 K
x2 = 0	884.09	879.83	875.57	871.31	867.05	862.79	858.53
x2 = 0.0672	891.2	886.85	882.5	878.15	873.8	869.45	865.1
x2 = 0.1391	899.18	894.73	890.29	885.85	881.41	876.97	872.53
x2 = 0.2103	907.48	902.95	898.42	893.89	889.36	884.83	880.3
x2 = 0.2853	916.69	912.06	907.43	902.8	898.17	893.55	888.93
x2 = 0.3543	925.67	920.95	916.23	911.51	906.79	902.08	897.37
x2 = 0.4293	936	931.18	926.36	921.55	916.74	911.93	907.12
x2 = 0.5092	947.69	942.77	937.85	932.93	928.02	923.11	918.2
x2 = 0.581	958.89	953.86	948.83	943.81	938.79	933.77	928.75
x2 = 0.6518	970.57	965.44	960.31	955.19	950.07	944.95	939.83
x2 = 0.7248	983.38	978.14	972.9	967.66	962.43	957.2	951.97
x2 = 0.7888	995.25	989.91	984.57	979.23	973.9	968.57	963.24
x2 = 0.8595	1009.11	1003.66	998.21	992.77	987.33	981.89	976.45
x2 = 0.9298	1023.75	1018.19	1012.63	1007.08	1001.53	995.99	990.45
